Molecules are shown by their SMILES. A value given as a limit tells only on which side of the number the result lay.

Data set [1] in a line: Pharmacokinetic evaluation in ICR mice after intragastric administration (plasma, LC/MS/MS). Particulars: mouse, po, male ICR mice, i.g., 20 mg/kg; for AUC(0-t): read-out: Area under the curve AUC0-t; for half-life: read-out: Half-life T1/2 (converted); for Cmax: read-out: Plasma concentration Cmax. The class given is in vivo. As to the method:
Taking ICR mice as test animals, the drug concentration in plasma of ICR mice was determined by LC/MS/MS method at different times after intragastric administration (i.g.) with the compound of the present disclosure. The pharmacokinetic behavior of the compound of the present disclosure in ICR mice was studied and the pharmacokinetic characteristics thereof were evaluated.
27 male ICR mice were taken and randomly divided into three groups. The mice were provided by JOINN Laboratories (Suzhou) Co., Ltd. Before administration, the mice were fasted overnight for at least 12 hours. During the fasting and experiment, the drinking water was normal saline.
A certain amount of the compound to be tested was taken, and the test sample prepared with a final concentration of 2 mg/mL was taken for oral administration. The preparation solvent was 0.5% Tween 80 in a 0.5% methylcellulose aqueous solution. After the preparation was complete, a 1N hydrochloric acid aqueous solution was added for adjustment to a clear solution (pH 4-5).
The dosage was 20.0 mg/kg and the dosage volume was 10.0 ml/kg.
At 15 min, 30 min, 1 h, 2 h, 4 h, 6 h, 8 h, 10 h, and 24 h after administration, at least 0.2 mL was taken from the vein (3 animals at each time point) and placed in an EDTA-K2 anticoagulation test tube. The blood sample was collected and then placed in a labeled ice-water bath centrifuge tube, and the plasma was quickly separated by centrifugation. The centrifugation conditions were as follows: 4000 revolutions/minute, 10 minutes, and 4°C. The plasma was stored at -40°C or lower for later testing. Feed supply was resumed 4 hours after administration.
Determination of the content of the compound to be detected in the plasma of ICR mice: After the plasma sample was thawed at room temperature, 50 µL was taken and added to 300 µL of (200 ng/mL, acetonitrile, terfenadine) internal standard, the mixture was vortexed and uniformly mixed for 1 min and then centrifuged at 4°C at 15400 g for 10 min. The supernatant was taken and injected for LC/MS/MS analysis.
The main pharmacokinetic parameters, such as AUC, Cmax and t1/2, were calculated by non-compartmental analysis (NCA) method using WinNonlin software.

In data set [2] the target is T1, CYP11A1 (Homo sapiens, UniProt P05108).
T1 construct: host or cells: NCI-H295R human adrenocortical cancer cells
T1 sequence (P05108 40-521): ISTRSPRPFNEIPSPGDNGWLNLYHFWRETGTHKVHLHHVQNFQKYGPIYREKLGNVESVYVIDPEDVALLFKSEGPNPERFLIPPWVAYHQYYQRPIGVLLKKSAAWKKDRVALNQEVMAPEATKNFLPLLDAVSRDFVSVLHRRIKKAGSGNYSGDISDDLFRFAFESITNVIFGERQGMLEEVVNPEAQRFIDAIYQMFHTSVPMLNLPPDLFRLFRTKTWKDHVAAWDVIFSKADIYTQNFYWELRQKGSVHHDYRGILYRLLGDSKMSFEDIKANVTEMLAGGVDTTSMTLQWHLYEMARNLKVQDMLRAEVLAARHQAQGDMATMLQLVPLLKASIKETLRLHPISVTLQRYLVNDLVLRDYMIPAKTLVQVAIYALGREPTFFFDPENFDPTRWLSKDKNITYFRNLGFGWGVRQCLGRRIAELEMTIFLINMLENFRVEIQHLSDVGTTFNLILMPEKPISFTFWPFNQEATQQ
Nature of the data set: Testosterone synthesis inhibition in NCI-H295R cells (testosterone ELISA of culture supernatant). Particulars: 24 hours incubation, testosterone in culture supernatant by ELISA. It is filed as cell-based. As for the experimental part:
The ability of different compounds to inhibit testosterone biosynthesis was determined by detecting the concentration of testosterone (Abnova testosterone ELISA kit, KA6502) using enzyme-linked immunosorbent assay (ELISA), so as to detect the ability of the compounds to inhibit CYP11A1. In the experiment, similarly, the human adrenocortical cancer cell line NCI-H295R (Procell, CL-0399) was also used as an enzyme source. The compounds were added during NCI-H295R cell culture. After incubation, the concentration of testosterone in the culture supernatant was determined.
95 µl of NCI-H295R cells were taken and cultured overnight with a specialized cell culture medium (Procell, CM-0399) in a 96-well culture plate in a cell incubator at 37°C and 5% CO2. 5 µl/well of a DMSO (Sigma, D8418) solution of the compounds to be tested at different concentrations was then added, followed by continued incubation for 24 hours. The final concentrations of the compounds to be tested were 1000 nM, 333.33 nM, 111.11 nM, 37.04 nM, 12.35 nM, 4.12 nM, 1.37 nM, 0.46 nM, and 0 nM. After the incubation was complete, the cells were centrifuged, 80 µl/well of the cell culture supernatant was obtained, and the concentration of testosterone therein was determined by ELISA method. During ELISA detection, a testosterone standard was used to generate a standard curve. The experiment was carried out with replicate wells. The ELISA well plate had been coated with an anti-testosterone monoclonal antibody. In ELISA plate strips, 25 µl/well of the culture supernatant or standard solution or reference substance was added, followed by 200 µl of a testosterone-HRP complex solution, and the plate was incubated for 1 hour at room temperature on a plate shaker (QILINBEIER, QB-9002) at 200 rpm. Then, the plate was washed three times with a cleaning solution, with 300 µl each time, and patted dry on absorbent paper. 200 µl of a TMB substrate was added. The plate was incubated on the plate shaker for 15 minutes at room temperature, and 100 µl of a stop solution was then added. The absorbance was measured at 450 nm by a microplate reader (PerkinElmer, 2105). The IC50 value was calculated by using GraphPad Prism software. [formula]

The target of data set [3] is T1, CYP11A1. Nature of the data set: Pregnenolone synthesis inhibition in NCI-H295R cells (pregnenolone ELISA of culture supernatant). The class given is cell-based. The following applies: 24 hours incubation, pregnenolone in culture supernatant by ELISA. The text has this:
Conversion of cholesterol into pregnenolone is a first rate-limiting step in the synthesis of all steroid hormones in vertebrates. This conversion reaction involves a two-step continuous monooxygenation reaction catalyzed by the unique cytochrome P450scc (CYP11A) to produce C22-hydroxycholesterol and C20,C22-dihydroxycholesterol in order, followed by CYP11A1-catalyzed breakage of a C20-C22 carbon-carbon single bond in C20,C22-dihydroxycholesterol to produce one molecule of pregnenolone and one molecule of 4-methylvaleraldehyde. Therefore, the inhibitory effect of a compound on CYP11A1 was identified by detecting the ability of the compound to inhibit pregnenolone synthesis.
The ability of different compounds to inhibit pregnenolone biosynthesis was determined by detecting the concentration of pregnenolone (Abnova pregnenolone ELISA kit, KA1912) using enzyme-linked immunosorbent assay (ELISA), so as to detect the ability of the compounds to inhibit CYP11A1. […] In order to determine the half-maximal inhibitory concentrations (IC50) of CYP11A1 inhibition by different compounds, the compounds were added during NCI-H295R cell culture, and after incubation, the concentration of pregnenolone in the culture supernatant was determined.
95 µl of NCI-H295R cells were taken and cultured overnight with a specialized cell culture medium (Procell, CM-0399) in a 96-well culture plate in a cell incubator at 37°C and 5% CO2. 5 µl/well of a DMSO (Sigma, D8418) solution of the compounds to be tested at different concentrations was then added, followed by continued incubation for 24 hours. The final concentrations of the compounds to be tested were 1000 nM, 333.33 nM, 111.11 nM, 37.04 nM, 12.35 nM, 4.12 nM, 1.37 nM, 0.46 nM, and 0 nM. After the incubation was complete, the cells were centrifuged, 80 µl/well of the cell culture supernatant was obtained and 1 : 8 diluted with the cell culture medium, and the concentration of pregnenolone therein was then determined by ELISA method. During ELISA detection, a pregnenolone standard was used to generate a standard curve. The experiment was carried out with replicate wells. The ELISA well plate had been coated with an anti-pregnenolone rabbit polyclonal antibody. In ELISA plate strips, 50 µl/well of the diluted culture supernatant or standard solution or reference substance was added, followed by 100 µl of a pregnenolone-HRP complex solution, and the plate was incubated for 1 hour at room temperature on a plate shaker (QILINBEIER, QB-9002) at 200 rpm. Then, the plate was washed three times with a cleaning solution, with 300 µl each time, and patted dry on absorbent paper. 150 µl of a TMB substrate was added. The plate was incubated on the plate shaker for 10-15 minutes at room temperature, and 50 µl of a stop solution was then added. The absorbance was measured at 450 nm by a microplate reader (PerkinElmer, 2105). The IC50 value was calculated by using GraphPad Prism software. [formula]

Regarding `Cn1c(CN2Cc3ccccc3C2)ccc(OCC2CCN(S(C)(=O)=O)CC2)c1=O` [Compound 1, 6-(isoindolin-2-ylmethyl)-1-methyl-3-((1-(methylsulfonyl)piperidine-4-yl)methoxy)pyridin-2(1H)-one], in data set [1], the AUC(0-t) is 9950 ng·h/mL, the half-life is 0.708 h and the Cmax is 9720 ng/mL. Also, the IC50 against CYP11A1 [2] turned out to be 17.7 nM. At CYP11A1 [3], this molecule yielded an IC50 of 4.15 nM.

Take `CS(=O)(=O)N1CCC(COc2coc(CN3Cc4ccccc4C3)cc2=O)CC1` [Comparative Example 1, reference compound]: in data set [1], the AUC(0-t) was 4330 ng·h/mL, the half-life is 1.87 h and the Cmax came to 7950 ng/mL.

Regarding `CCn1c(CN2Cc3ccccc3C2)ccc(OCC2CCN(S(C)(=O)=O)CC2)c1=O` [Compound 25, 1-ethyl-6-(isoindolin-2-ylmethyl)-3-((1-(methylsulfonyl)piperidine-4-yl)methoxy)pyridin-2(1H)-one], the figures for the IC50 against CYP11A1 [2] and at CYP11A1 [3] were 3.78 nM and 1.56 nM, respectively.

As to `CCn1c(CN2Cc3ccccc3C2)ccc(OCC2CCN(S(=O)(=O)NS(N)(=O)=O)CC2)c1=O` [Compound 30, 4-(((1-ethyl-6-(isoindolin-2-ylmethyl)-2-oxo-1,2-dihydropyridin-3-yl)oxy)methyl)-N-sulfamoylpiperidine-1-sulfonamide], the IC50 on CYP11A1 [2] came to 4.04 nM; on CYP11A1 [3] it was 0.648 nM.

As to `CCn1c(CN2Cc3ccccc3C2)ccc(OCC2CCN(S(=O)(=O)O)CC2)c1=O` [Compound 31, 4-(((1-ethyl-6-(isoindolin-2-ylmethyl)-2-oxo-1,2-dihydropyridin-3-yl)oxy)methyl)piperidine-1-sulfonic acid], the IC50 on CYP11A1 [2] was greater than 1000 nM.

As to `CCn1c(CN2Cc3ccccc3C2)ccc(OCC2CCN(S(N)(=O)=O)CC2)c1=O` [Compound 28, 4-(((1-ethyl-6-(isoindolin-2-ylmethyl)-2-oxo-1,2-dihydropyridin-3-yl)oxy)methyl)piperidine-1-sulfonamide], in data set [1], the AUC(0-t) was 13600 ng·h/mL, the half-life was 1.22 h and the Cmax is 5440 ng/mL. The same molecule displayed an IC50 on CYP11A1 [2] of 7.02 nM. The molecule further showed a concentration for half-maximal inhibition (IC50) on CYP11A1 [3] of 1.18 nM.

For `CCn1c(CN2Cc3ccccc3C2)ccc(OCC2CCN(S(=O)(=O)C3CC3)CC2)c1=O` [Compound 26, 3-((1-(cyclopropylsulfonyl)piperidine-4-yl)methoxy)-1-ethyl-6-(isoindolin-2-ylmethyl)pyridin-2(1H)-one], the results for the IC50 against CYP11A1 [2] and at CYP11A1 [3] were 2.45 nM and 0.7 nM, respectively.

As to `[2H]C([2H])([2H])n1c(CN2Cc3ccccc3C2)ccc(OCC2CCN(S(=O)(=O)C(F)(F)F)CC2)c1=O` [Compound 16, 6-(isoindolin-2-ylmethyl)-1-(methyl-d3)-3-((1-((trifluoromethyl)sulfonyl)piperidine-4-yl)methoxy)pyridin-2(1H)-one], the figures for the IC50 at CYP11A1 [2] and against CYP11A1 [3] were 40.2 nM and 1.03 nM, respectively.

The values above are taken from EP4644384A1 (Shanghai Lichun Biotech Co., Ltd., priority 2023, dated 2024).
